According to US20050010126A1, “Assessment of concentration of inhalational compounds in the brain” (priority 2001, published 2005):
Values belong to the molecule of their own block, whether it stands above or below them.

Columns and labels:
[1] = assessment of mixed venous and brain anesthetic concentration from inspired and expired concentrations
Source text: At the stage of anesthesia (after the FRC is filled with the gas), the equation: Ci′−Ce′=M (Ci′−Cb′) can be used to calculate the compound concentration in the mixed venous blood (Cb′), in which Ci′ and Cb′ are the inspired compound concentration and the expired compound concentration, respectively: Cb′=[Ci′(M−1)+Ce′]/M.
As discussed above, Cb=(A+J)/2 and (A+J)/2=(Ce′+2Cb′)/3 or (Ce′+3Cb′)/4, the compound concentration in the brain (Cb) can be expressed as: Cb=(Ce′+2Cb′)/3 or (Ce+3Cb′)/4.
Thus, with measurements of the expired compound concentration (Ce′) and the mixed venous compound concentration (Cb′), the compound concentration in the brain (Cb) can be readily obtained. Below are two examples of how to assess brain anesthetic concentrations by this method.
A tube is connected to the circle system of an anesthesia machine consisting of gas flowmeters, a compound vaporizer, supply of oxygen, air and nitrous oxide gas, and a ventilator (e.g., Detex-Ohmeda, Finland, or Drager, Germany). The gas is then delivered to the patient by the anesthesia machine. […] Near the connection between the circle system and the tube, a side arm sampling site is linked to a gas monitoring equipment (e.g., an infra-red monitor or a mass spectrometer). Typically, a sampling speed is 200 mL/min. […] A more precise determination of M is performed at the end of 3 min, when 85-95% of the FRC has been filled with the gas.

[2] = alveolar membrane factor M of an inhalational compound; assay type: in vivo, patients
Source text: As the gas penetrates the alveolar membrane and enters the pulmonary capillary blood flow, it must follow the Fick's principal. See Katzung, R. G. (1998) Basic principles, introduction in basic and clinical pharmacology Appleton-Lange p 5. The Fick's principal defines the rate of penetrating the alveolar membrane as: DAk/x (Ci-Cb') D is a diffusion constant, A is the area of the membrane (proportional to the pulmonary capillary flow or cardiac output), k is a solubility coefficient, x is the thickness of the membrane, Ci is an inspired compound concentration, and Cb' is the mixed venous compound concentration. Assuming that the pulmonary capillary flow or the cardiac output is constant, then, for a given inhalational compound, DAk/x is a constant. This constant DAk/x is defined as a membrane factor, M, which varies from one inhalational compound to another. […] Since the membrane factor may vary slightly among patients, a more precise determination of the membrane factor can be performed as described below. The rate of penetrating the alveolar membrane DAk/x (Ci-Cb') can be expressed as: M(Ci-Cb'), in which M is DAk/x. When measuring an uptake of an inhalational compound-containing gas in each breathing cycle, the rate of the uptake is a function of a difference between the inspired concentration (Ci) and the expired concentration (Ce). The difference can be expressed as: Ci-Ce. Ci-Ce. and M (Ci-Cb') both represent the rate of uptake of an inhalational compound: Ci-Ce=M(Ci-Cb'), or M=(Ci-Ce)/(Ci-Cb'). During the initial introduction of an inhalational compound (before the FRC is filled with the gas), the membrane factor M for an individual can be approximated by assuming Cb'=0: M=(Ci-Ce)/Ci=1-(Ce/Ci).

[3] = general value for the compound, for most patients

SMILES: FC(F)OC(F)C(F)(F)F (stereo not drawn) [desflurane]
concentration in the brain (Cb) = (Ce'+3Cb')/4 ([1]; desflurane, inspired 6.2%, expired 5.4%, M 0.2): 3.0%
patient's membrane factor M = (Ci-Ce)/Ci ([2]; desflurane, inspired 6%, expired 4.8% at 3-4 minutes (85-95% of FRC filled)): 0.2
membrane factor M (DAk/x) [2, 3]: 0.2

SMILES: FC(F)(F)C(Cl)Br (stereo not drawn) [halothane]
membrane factor M (DAk/x) ([2]; human, in vivo): 0.5

SMILES: COC(F)(F)C(Cl)Cl [methoxyflurane]
membrane factor M (DAk/x) [2, 3]: 0.8

More lines, now with the values ahead:

membrane factor M (DAk/x) ([2]; human, in vivo): 0.4
SMILES: FC(F)OC(Cl)C(F)(F)F (stereo not drawn) [isoflurane]

brain concentration (Cb) = (Ce'+2Cb')/3 ([1]; human, in vivo, 30 min): 1.77%
concentration in the mixed venous blood (Cb') ([1]; human, in vivo, 30 min): 1.16%
patient's membrane factor M = (Ci-Ce)/Ci ([2]; human, in vivo): 0.214
SMILES: FCOC(C(F)(F)F)C(F)(F)F [sevoflurane]
